# Values quoted from earlier work, collected in article PMC7931078 (Molecules, 2021).
# Tested on: Mtb
# Design: method as in PMID 29487031
# Conditions: first line treatment regimen; cited from earlier work
compound,measurement,value
CC[C@@H](CO)NCCN[C@@H](CC)CO [ethambutol],MIC,15 µM
